In paper PMC5063506, “A Novel Class of Small Molecule Agonists with Preference for Human over Mouse TLR4 Activation” (PLoS ONE, 2016):

Key:
[1] = test system: guinea pig TLR4, MD2, and CD14; experiment: Guinea-pig TLR4 reporter agonist assay (HEK293 SEAP, DDAO phosphate); format: cell-based; settings: 10^-5 to 10^-10 M, 20 h, % of maximum 1 μM LPS signal
Source text: Fragments of guinea pig TLR4 were identified by searching the Ensembl genome browser database (http://www.ensembl.org/index.html) using the BLAST algorithm and discontiguous mega blast of the NCBI trace archives (http://www.ncbi.nlm.nih.gov/blast/tracemb.shtml) using the DNA sequence of human TLR4 Isotype A as the search string. Guinea pig CD14 was assembled in silico from fragments identified in the NCBI trace archives using human CD14 as the search string (76% similar/72% identical). Fragments corresponding to guinea pig MD2 were identified by searching the Ensembl genome browser database and NCBI trace archives with human MD2 as the search string (72% similar/68% identical). Sequence information was used to design primers for PCR amplification of full length coding sequences from guinea pig spleen cDNA. Sequences for guinea pig MD2 and CD14 were as predicted in silico. gpTLR4 was cloned into the expression vector pUNO (Invivogen). gpMD2 and gpCD14 were cloned together into pDUO (Invivogen) for co-expression. gpMD2 was also cloned into pUNO for transient co-expression with gpTLR4. A stable mixed population expressing gpTLR4 /CD14/MD2 was made by transfecting the gpTLR4/pUNO and gpMD2 + gpCD14/pDUO constructs into a HEK293 cell-line containing a stably integrated pNiFty2-SEAP reporter plasmid (Invivogen) using Fugene-6 (Roche). […]
SEAP detection assay was performed as previous described by. […] Plates were read using the Envision plate reader excitation λex 620nm, emission λem 665nm. Data was analyzed as % maximum 1 μM Ultrapure (0111:B4) LPS activation signal (Invivogen).
Fig 5 Ugi compounds activate guinea pig TLR4/MD2-HEK transfectants. […] The plates were developed with the addition of DDAO phosphate as substrate and then read on a plate reader at 620 nm. Data were analyzed as % of the maximum 1 μM Ultrapure (0111:B4) LPS activation signal.

GP PBMCs = experiment: Cytokine gene expression in guinea pig PBMCs (QuantiGene Plex); format: cell-based; settings: 1 and 0.2 μg/ml, 24 h, ranking among Ugi compounds
Description: Splenocytes were isolated from naïve BALB/c mice by dissociating spleens with a GentleMACS (Miltenyi) instrument, then filtration through […] screens. For other species, blood was obtained through venipuncture or cardiac puncture into heparinized tubes, then diluted 1:1 with PBS or HBSS and layered onto Ficoll-Histopaque (GE Healthcare) for blood from healthy human volunteers and cynomolgus macaques, Lympholyte-Mammal (Cedarlane Labs) for New Zealand white rabbits, Sprague-Dawley rats, Hartley guinea pigs, cotton rats, and ferrets, followed by standard density centrifugation techniques. PBMCs layers were recovered and cultured in RPMI-1640 + human AB serum (Life Technologies) + Pen Strep + L-Glutamine (human cells) or RPMI-1640 + 10% FBS (Hyclone) + Pen/Strep + L-Glutamine + 0.1% Beta-Mercapto-ethanol (Sigma) (mouse, cyno, rat, cotton rat, guinea pig, rabbit, ferret cells). Purchase of peripheral blood from cynomolgus macaques was from Valley Biosystems (West Sacramento, CA) and was performed in accordance with Standard Operating Procedures and with the approval of the Valley Biosystems Institutional Animal Care and Use Committee (IACUC). […]
PBMCs (human, cynomolgus macaque, guinea pig, ferret, rabbit, rat, and cotton rat) or splenocytes (mouse) were seeded onto 96-well flat bottom plates at 5 x 10^5 cells/well and stimulated with TLR4 agonists at 1 and 0.2 μg/ml for 24 h at 37°C. […] For human, cyno, mouse, and rat, cell-free SNs were analyzed via human, NHP, mouse, and rat MILLIPLEX kits. For GP, ferret, rabbit, and CR, cells were lysed by Millipore lysing buffer and snap frozen at -70 C until ready for analysis by Affymetrix QuantiGene 2.0 Plex kits. […] Signal was detected using a Bioplex 200 instrument (BioRad). […]
Fig 7 Activation of cytokine gene expression by Ugi compounds in GP PBMCs. […] SNs were analyzed via GP Affymetrix QuantiGene Plex assay. Data are expressed as the means of 3 GPs at the 1 μg/ml dose of TLR4 agonist and are representative of 2 studies. […]

Row | SMILES | potency on gpTLR4/gpMD2/gpCD14 HEK293 transfectants [1] | activity in GP PBMCs (cytokine mRNA) (GP PBMCs)
1 | Cc1ccc(N(C(=O)c2cc(-c3ccccc3)n(-c3ccccc3)n2)C(C(=O)NC2CCCC2)c2ccc(CC(=O)O)cc2)cc1Cl (stereo not drawn) [AZ161] | potency comparable to LPS | –
2 | O=C(O)Cc1ccc(C(C(=O)NC2CCCC2)N(C(=O)c2cc(-c3ccccc3)n(-c3ccccc3)n2)c2ccc3c(c2)CCC3)cc1 (stereo not drawn) [AZ617] | potency comparable to LPS | highest activity
3 | Cc1cc(C)cc(N(C(=O)c2cc(-c3ccccc3)n(-c3ccccc3)n2)C(C(=O)NC2CCCC2)c2ccc(CC(=O)O)cc2)c1 (stereo not drawn) [AZ618, 2-(4-(2-(cyclopentylamino)-1-(N-(3,5-dimethylphenyl)-1,5-diphenyl-1H-pyrazole-3-carboxamido)-2-oxoethyl)phenyl)acetic acid] | – | highest activity
4 | CC(C)(C)c1ccc(N(C(=O)c2cc(-c3ccccc3)n(-c3ccccc3)n2)C(C(=O)NC2CCCC2)c2ccc(CC(=O)O)cc2)cc1 (stereo not drawn) [AZ902] | less active but still positive | lowest activity
